Measured values reported in patent US20110082130A1 (LIGAND PHARMACEUTICALS, INC., priority 2006, published 2011).
pKi: −log10 of the molar value.

target: T1, chimeric human H3 receptor (Homo sapiens, UniProt Q9Y5N1); assay: Chimeric human H3 receptor GTP binding assay (agonist-stimulated GTP-gamma35S binding, Example 7); type: biochemical; conditions: Table I; P2 membranes of Sf9 cells, 1 μM histamine as agonist, Ki from IC50 by Cheng-Prusoff
T1 construct: made in house; host or cells: Sf9 insect cells (baculovirus); P2 membrane preparation
T1 sequence (Q9Y5N1 with tags, fused parts or gaps): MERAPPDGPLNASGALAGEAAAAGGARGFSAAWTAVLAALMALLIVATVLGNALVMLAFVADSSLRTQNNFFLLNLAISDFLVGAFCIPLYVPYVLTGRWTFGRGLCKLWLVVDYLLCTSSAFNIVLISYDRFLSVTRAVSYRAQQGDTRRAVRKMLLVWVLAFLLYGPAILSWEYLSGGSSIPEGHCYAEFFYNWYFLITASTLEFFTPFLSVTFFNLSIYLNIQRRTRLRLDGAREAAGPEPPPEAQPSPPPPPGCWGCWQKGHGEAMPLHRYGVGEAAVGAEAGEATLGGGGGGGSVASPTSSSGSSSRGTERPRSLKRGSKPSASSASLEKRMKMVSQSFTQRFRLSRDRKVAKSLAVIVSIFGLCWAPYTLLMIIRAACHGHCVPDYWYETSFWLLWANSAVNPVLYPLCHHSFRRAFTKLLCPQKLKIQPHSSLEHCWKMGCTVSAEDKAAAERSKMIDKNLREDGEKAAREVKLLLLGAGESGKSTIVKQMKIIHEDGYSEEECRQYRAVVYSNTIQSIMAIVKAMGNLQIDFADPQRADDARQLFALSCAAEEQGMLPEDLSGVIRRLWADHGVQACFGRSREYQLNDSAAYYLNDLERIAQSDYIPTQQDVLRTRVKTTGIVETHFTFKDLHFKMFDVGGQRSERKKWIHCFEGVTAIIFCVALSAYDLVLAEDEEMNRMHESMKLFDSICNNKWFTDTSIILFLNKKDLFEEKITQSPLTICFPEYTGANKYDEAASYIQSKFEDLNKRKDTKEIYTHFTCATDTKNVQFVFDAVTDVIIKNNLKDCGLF
Summary of the method: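 Sf9 membranes co-expressing chimeric human H3 receptor and heterotrimeric G-protein, 35 μg/tube, in pH 7.4 Tris buffer with 10 μM GDP. Test compounds (10^−10–10^−6 M) competed against 1 μM histamine, […] GTP-gamma35S, 60 min at room temperature. Filter-bound radioactivity counted; IC50 converted to Ki by Cheng-Prusoff. Agonism/inverse agonism tested without histamine (EC50).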

pKi, > 6.00:
O=C(CN1CCc2cc(-c3ccncc3)ccc2C1)N1CCN(C2CCC2)CC1 [Compound 75, 2-[2-(4-cyclobutylpiperazin-1-yl)-2-oxoethyl]-6-pyridin-4-yl-1,2,3,4-tetrahydroisoquinoline]

same assay, conditions: Table II "Ki", symbol *; assay of Example 7

pKi, > 6.00:
CN(C)c1ccc(-c2ccc3c(c2)CCN(CC(=O)N2CCN(C4CCCC4)CC2)C3)cc1 [Compound 533, 4-{2-[2-(4-cyclopentylpiperazin-1-yl)-2-oxoethyl]-1,2,3,4-tetrahydroisoquinolin-6-yl}-N,N-dimethylaniline]
CCCOc1ccc(-c2ccc3c(c2)CCN(CC(=O)N2CCN(C4CCCC4)CC2)C3)cc1 [Compound 545, 2-[2-(4-cyclopentylpiperazin-1-yl)-2-oxoethyl]-6-(4-propoxyphenyl)-1,2,3,4-tetrahydroisoquinoline]
O=C(CN1CCc2cc(-c3ccc(C(F)(F)F)cn3)ccc2C1)N1CCN(C2CCC2)CC1 [Compound 632, 2-[2-(4-cyclobutylpiperazin-1-yl)-2-oxoethyl]-6-[5-(trifluoromethyl)pyridin-2-yl]-1,2,3,4-tetrahydroisoquinoline]
CCCC(C)Nc1ccc2c(n1)CCN(CC(=O)N1CCN(C3CCC3)CC1)C2 (stereo not shown) [Compound 657, 6-[2-(4-cyclobutylpiperazin-1-yl)-2-oxoethyl]-N-(1-methylbutyl)-5,6,7,8-tetrahydro-1,6-naphthyridin-2-amine]
COc1cc(-c2ccc3c(c2)CCN(CC(=O)N2CCN(C4CCC4)CC2)C3)nc(OC)n1 [Compound 635, 2-[2-(4-cyclobutylpiperazin-1-yl)-2-oxoethyl]-6-(2,6-dimethoxypyrimidin-4-yl)-1,2,3,4-tetrahydroisoquinoline]

same assay, conditions: Table II; "*" = Ki in assay of Example 7 less than 1 micromolar

pKi, > 6.00:
CC1CCC[C@H]2CN(C(=O)CN3CCc4nc(Cl)ccc4C3)CCN12 (stereo in doubt) [Compound 174, 2-chloro-6-[2-(6-methyloctahydro-2H-pyrido[1,2-a]pyrazin-2-yl)-2-oxoethyl]-5,6,7,8-tetrahydro-1,6-naphthyridine]
O=C(CN1CCc2cc(-c3cccnn3)ccc2C1)N1CCN(C2CCC2)CC1 [Compound 129, 2-[2-(4-cyclobutylpiperazin-1-yl)-2-oxoethyl]-6-pyridazin-3-yl-1,2,3,4-tetrahydroisoquinoline]
CC1CN(C(=O)CN2CCc3nc(Cl)sc3C2)CCN1C1CCC1 (stereo not shown) [Compound 109, 2-chloro-5-[2-(4-cyclobutyl-3-methylpiperazin-1-yl)-2-oxoethyl]-4,5,6,7-tetrahydro[1,3] thiazolo [5,4-c]pyridine]
CCCn1cc(-c2ccc3c(c2)CCN(CC(=O)N2CCN(C4CCC4)CC2)C3)ccc1=O [Compound 281, 5-{2-[2-(4-cyclobutylpiperazin-1-yl)-2-oxoethyl]-1,2,3,4-tetrahydroisoquinolin-6-yl}-1-propylpyridin-2(1H)-one]
C[C@H]1CCCN1c1ccc2c(n1)CCN(CC(=O)N1CCN(C3CCC3)CC1)C2 (stereo in doubt) [Compound 223, 6-[2-(4-cyclobutylpiperazin-1-yl)-2-oxoethyl]-2-(2-methylpyrrolidin-1-yl)-5,6,7,8-tetrahydro-1,6-naphthyridine]
COc1ccc(-c2ccc3c(n2)CCN(CC(=O)N2CCN4C(C)CCC[C@H]4C2)C3)cc1 (stereo in doubt) [Compound 178, 2-(4-methoxyphenyl)-6-[2-(6-methyloctahydro-2H-pyrido[1,2-a]pyrazin-2-yl)-2-oxoethyl]-5,6,7,8-tetrahydro-1,6-naphthyridine]

same assay, conditions: assay of Example 7; "*" in Ki of Table II

pKi, > 6.00:
O=C(CN1CCc2nc(-c3cc(F)cc(F)c3)sc2C1)N1CCN(C2CCC2)CC1 [Compound 355, 5-[2-(4-cyclobutylpiperazin-1-yl)-2-oxoethyl]-2-(3,5-difluorophenyl)-4,5,6,7-tetrahydro[1,3]thiazolo [5,4-c]pyridine]
